The record followed here is patent US20160168541A1, “TRANSDUCIBLE MATERIALS FOR CELL REPROGRAMMING” (VIVOSCRIPT, INC., priority 2013, published 2016).

“Also recorded” adds a separate entry of the source.

Type in all cases: cell-based
The subject of assay [1] is adult human fibroblasts. The assay can be described thus: Live fluorescent imaging of uptake and nuclear occupancy of sGFP polypeptides in fibroblasts. The conditions noted are these: 10 μg/ml. The protocol:
FIG. 5. Live fluorescent imaging of human fibroblasts after culturing in 10 μg/ml of first generation sGFP-MyoD-11R.
In the first generation of transducible materials, a sGFP transduction domain and a poly-arginine (11R) were fused to the N-terminus and C-terminus of MyoD through a linker (SEQ ID NO: 99) respectively to generate sGFP-MyoD-11R (SEQ ID NO: 156). […] The nuclear entry of sGFP-MyoD-11R was increased by using 100 μg/ml sGFP-MyoD-11R and electroporation, which successful reprogrammed very low percentage (around 10%) of FBs to MyoD+ myoblasts.
The second generation of transducible materials, a strong classic nuclear localization sequence (cNLS), the SV40 T antigen NLS, was added in-between sGFP and MyoD-11R (SEQ ID NO: 157 and FIG. 3).
Leptomycin B (leptoB), a nuclear export blocker, was added at 5 nM to adult fibroblasts to enhance nuclear occupancy of sGFP-NLS-MyoD-11R. […] Higher concentrations of leptoB might have off-target effects, which limits its use in enhancing nuclear retention of specific polypeptides.
In the third generation of transducible materials, the NES of MyoD was mutated to generate sGFP-NLS-MyoD(mNES)-11R (SEQ ID NO: 127 and FIG. 3) to further improve their nuclear occupancy and transcription efficiency. […] These SCs were positive for Myf5 (>90% of SCs) at 22 days after transduction (FIG. 8B). Also, these SCs could be induced to differentiate to myoblasts with downregulation of Pax7 and upregulation of MyoD via a published myogenic protocol (Cosgrove et al, Rejuvenation of the muscle stem cell population restores strength to injured aged muscles, Nat Med., 20:255-64 (2014)). […] Thus, by using sGFP-NLS-MyoD(mNES)-11R, efficient fibroblasts conversion to SMPCs can be achieved in a controlled fashion. The risk of extensive durations of MyoD activation is completely avoided. Most myogenic analysis was performed at >2 weeks after polypeptide transduction to avoid confounding issues from added exogenous polypeptides. In summary, adult fibroblast can be successfully reprogrammed to SCs using sGFP-NLS-MyoD(mNES)-11R with defined kinetics (2-day nuclear occupancy and 2-3 week peptide lifespan).

The test system of assay [2] is adult human fibroblasts. The assay can be described thus: Reprogramming of fibroblasts to skeletal muscle progenitor cells (satellite cells, myoblasts). The protocol: FIG. 4. Schematic of experimental protocol to convert fibroblasts to myoblasts with transducible materials derived from MyoD.
In this example, three versions of transducible materials derived from MyoD (the master myogenic transcription factor) were generated and their effects on reprogramming fibroblast cells into skeletal muscle progenitor cells (SMPCs) were compared.
Most myogenic analysis was performed at >2 weeks after polypeptide transduction to avoid confounding issues from added exogenous polypeptides.

The subject of assay [3] is Oct4 target genes (Oct4, Sox2, Nanog, Smad3 and Smad4). The assay can be described thus: RT-qPCR of Oct4 target genes in HepG2 cells treated with transducible materials. The conditions noted are these: serum-free medium, 6 hours, normalized by GAPDH, sGFP-treated sample set as 1.00. The protocol:
FIG. 2. Comparison of sGFP-Oct4(mNES) and sGFP-Oct4 protein in regulating the expression of downstream genes. HepG2 cells were treated with sGFP, sGFP-Oct4 or sGFP-Oct4(mNES) in serum-free medium for 6 hours. RNA was isolated and RT-qPCR was performed. The expression of each gene was normalized by the expression level of GAPDH. The relative expression level of each gene in the control condition (sGFP-treated sample) was set as 1.00.
HepG2 cells were treated with transducible materials comprising isolated polypeptide of sGFP, sGFP-Oct4-11R or sGFP-Oct4(mNES)-11R in serum-free medium for 6 hours. RNA was extracted from each sample using RNeasy Micro Kit from Qiagen and cDNA was synthesized through reverse transcription reaction. RT-qPCRs of five Oct4 target genes (Oct4, Sox2, Nanog, Smad3 and Smad4 were performed using a pair of primers specific to each target gene and a hydrolysis probe from Roche Universal ProbeLibrary on LightCycler 480 II. The expression of each gene was normalized by the expression level of GAPDH. The relative expression level of each gene in the control condition (sGFP-treated sample) was set as 1.00.

As to “sGFP-NLS-MyoD-11R: Second generation: SV40 T antigen NLS added between sGFP and MyoD-11R, SEQ ID NO: 157”, the “time the polypeptide stays in the nucleus” value in the assay with adult human fibroblasts [1] (leptomycin B 5 nM) is greater than 24 h. Besides, in the assay on adult human fibroblasts [1] (leptomycin B 5 nM, third generation at 30 min, 24 hours and 48 hours), the “nuclear occupancy (GFP signal in nuclei) with leptomycin B” value is “slightly improves the nuclear occupancy”. In addition, the “nuclear occupancy (localization of GFP signal)” value with adult human fibroblasts [1] (no leptomycin B) is “more transducible materials were observed in nuclei; also recorded: GFP signal were observed in the nuclei”. For the same substance, the “change of nuclear occupancy with time” value in the assay with adult human fibroblasts [1] (no leptomycin B, 24 hours) was “significantly decreased within 24 hours; also recorded: GFP signal in the nuclei decreased after 24 hours”. In addition, in the assay on adult human fibroblasts [2] (10 μg/ml, no leptomycin B), the “reprogramming of fibroblasts to SMPCs” value is “low and inconsistent”. Besides, the “reprogramming efficiency of adult fibroblasts to SMPCs” value in the assay with adult human fibroblasts [2] (continuous presence of leptomycin B 5 nM) is on record as “around 5%”.
Turning to “sGFP-Oct4-11R: Fusion polypeptide of supercharged GFP, Oct4 and 11R, SEQ ID NO: 155, unmutated NES”, the “expression of Oct4 target genes” value in assay [3] was “does not increase”.
